# According to patent publication US6469055B2, “Compositions and methods for treatment of neurological disorders and neurodegenerative diseases” (Massachusetts Institute of Technology, priority 1996, dated 2002):
# “Also recorded” adds a separate entry of the source. Counter-ions that a name gives are not always drawn.
# Key:
# secreted APP (APPs) = assay: APPs secretion into the media of cultured cortical astrocytes, Western blot; type: cell-based, rat
# Procedure: Astrocytes are isolated from cortices from postnatal rats. […] Media are changed twice weekly.
# To detect secreted APP, culture media was collected after drug treatments and phenylmethylsulfonyl fluoride was added to a final concentration of 2 mM. The media samples were then applied to Sephadex PD-10 desalting columns (Pharmacia) and eluted with distilled water. Column eluates were frozen and dried by vacuum centrifugation. The lyophilized proteins were reconstituted in 25 μL water followed by 25 μL of 2X Laemmli gel loading buffer, and boiled for 5 min.
# (§1) Assays of PI hydrolysis are conducted as previously reported. Also, measurements of APPs are conducted as previously reported.
# APP holoprotein = assay: Cell-associated APP (APP holoprotein), Western blot, cultured cortical astrocytes; details: for effect on cell-associated APP (APP holoprotein): PMA 5 μM or DNF 100 μM, hydrochloride; for effect on cell-associated APP (APP holoprotein) / effect on the increase in APP holoprotein stimulated by PG E2: 24 h; for effect on basal APP holoprotein: p>0.05; for effect on the increase in APP holoprotein stimulated by PG E2: PG E2 10 μM
# Procedure: Astrocytes are isolated from cortices from postnatal rats. […] In brief, dissected cortices were dissociated by trypsinization and trituration through a flame-polished Pasteur pipette. Cells were plated onto poly-L-lysine coated 35- or 100 mm culture dishes at densities of about 10-25 cells/mm^2. […] Media are changed twice weekly. […] Pharmacological manipulations are performed in serum-free media on 7-14 DIV confluent astrocytes.
# To detect cell-associated protein (APP or GFAP), astrocytes from 35 mm dishes are scraped in lysis buffer (60 mM Tris/HCl, 4% SDS, 20% glycerol, 1 mM dithiothreitol), ultrasonicated and boiled for 5 min. The total amount of cell protein per dish, estimated using the bicinchoninic acid assay, is not altered by pharmacological treatments. Bromphenol blue (0.1%) is added to each sample and equal amounts of protein (˜75 mg/lane) are loaded on 10% SDS-polyacrylamide gels.
# (§2) The amount of media or cell protein loaded for sodium dodecyl sulfate-polyacrylamide gel electrophoresis (10-20% SDS PAGE; Bio-Rad) was normalized for the amount of protein per sample. […] After 2×10 min rinses in TBST, the membranes were incubated in TBST containing an appropriate antibody. Monoclonal antibodies 22C11 and GFAP (both from Boehringer-Mannheim) were used to detect the N-terminus of APP and glial fibrillary acidic protein respectively; antisera R37 and R98 (gifts of Dr. F. Kametani, Tokyo Institute of Psychiatry) were used to detected the C-terminus and KPI motifs of APP respectively; antiserum C8 (gift of Dr. D. Selkoe, Women's Hospital, Harvard Medical School, Cambridge, Mass.) was used to detect the C-terminus of APP.
# After an overnight incubation, membranes were rinsed in TBST before being treated for 1h with a peroxidase-linked secondary antibody. After several rinses in TBST, protein bands were visualized on Kodak X-AR films by an enhanced chemiluminescence method (Amersham). Optical densities of the protein bands were quantitated by laser scanning densitometry (LKB, Bromma, Sweden), and normalized to the densities of those bands generated under control conditions.
# PI hydrolysis = PI hydrolysis in cultured astrocytes; type: cell-based, rat
# Procedure: as §1
# APP mRNA = assay: APP mRNA, Northern blot, cultured cortical astrocytes; details: for effect on the increase in APP mRNA stimulated by PG E2: EGTA or KN-93 100 μM, PG E2 10 μM
# Procedure: Pharmacological manipulations are performed in serum-free media on 7-14 DIV confluent astrocytes.
# Total RNA from astrocytes grown on 100 mm dishes is extracted by the acid guanidium thiocyanate-phenol-chloroform method. […] In brief, the medium was aspirated and the cells were scraped in 1 mL of TRI Reagent. After incubation for 15 min at room temperature, 0.2 ml chloroform was added, mixed vigorously with TRI Reagent and the mixture was stored for another 15 min at room temperature. After centrifugation at 12,000 g for 15 min, 0.5 ml isopropanol was added to the aqueous phase of the mixture to precipitate RNA. The RNA pellet collected by centrifugation (12,000 g, 15 min at 4° C.) was washed with 70% ethanol. once and solubilized in an appropriate amount of Formazol (Molecular Research Center, Cincinnati, Ohio). […] RNA was blotted onto Hybond polyvinyl membranes by overnight capillary transfer and fixed onto the membranes by UV light illumination. […] Membranes were dried and exposed to Kodak X-ray film for 24-48 h with an Amersham enhancer sheet. The relative amounts of mRNA obtained by hybridization were estimated using densitometric analysis of autoradiographs. The levels of APP mRNA were normalized to the amounts of G3PDH mRNA and expressed as a ratio to the levels of untreated, control cells.
# cellular cAMP levels = assay: cAMP assay in cultured astrocytes; type: cell-based, rat; details: for effect on cellular cAMP levels stimulated by PG E2: EGTA or KN-93, PG E2 10 μM
# Procedure: In brief, after aspirating the medium and rinsing twice with 1 ml ice cold PBS, the cells were scraped in 0.8 ml ice cold ethanol and sonicated. […] After resuspension in 120 μl Tris/EDTA buffer, two duplicate samples of 50 μl each were mixed with the binding protein, [8-^3H] adenosine 3′, 5′-cyclic phosphate tracer and incubated at 2-4° C. for 2 h. A charcoal suspension (100 μl) was added to the samples before centrifugation and 200 μl of the supernatant were removed for. scintillation counting. The amount of cyclic AMP (pmol/mg protein) was estimated by comparing to known standards, and normalized to the amounts of whole cell protein as determined by the bicinchoninic acid assay (Sigma).
# APP synthesis = APP synthesis (APP mRNA and holoprotein) in cultured cortical astrocytes; type: cell-based, rat
# astrocytes = assay: Process formation of cultured astrocytes; type: cell-based, rat
# [1] = system: glial fibrillary acidic protein (GFAP); assay: GFAP protein in cultured astrocytes, Western blot; type: cell-based, rat; details: 8Br-cAMP or NE
# Procedure: To detect cell-associated protein (APP or GFAP), astrocytes from 35 mm dishes are scraped in lysis buffer (60 mM Tris/HCl, 4% SDS, 20% glycerol, 1 mM dithiothreitol), ultrasonicated and boiled for 5 min. […] Bromphenol blue (0.1%) is added to each sample and equal amounts of protein (˜75 mg/lane) are loaded on 10% SDS-polyacrylamide gels.
# as §2
# After an overnight incubation, membranes were rinsed in TBST before being treated for 1h with a peroxidase-linked secondary antibody. After several rinses in TBST, protein bands were visualized on Kodak X-AR films by an enhanced chemiluminescence method (Amersham). […]
# [2] = DFU or DFP 10^-9-10^-3 M, 1 h, cultured astrocytes
smiles,measurement,setting,value
"CC1(C)OC(=O)C(c2cccc(F)c2)=C1c1ccc(S(C)(=O)=O)cc1 [DFU, 5,5-dimethyl-3-(3-fluorophenyl)-4-(4-methylsulphonyl)phenyl-2(5H)-furanone]",secretion of soluble APPs,secreted APP (APPs); [2],increases; also recorded: promotes
same,levels of cellular APP holoprotein,APP holoprotein; [2],decreases
"C[C@H](N)Cc1cccc(C(F)(F)F)c1 [DNF, dexnorfenfluramine hydrochloride]",APPs secretion relative to untreated cells,"secreted APP (APPs); PMA 5 μM or DNF 100 μM, 1 hour, mAb22C11",significantly increases
same,"APPs secretion, to that of untreated cells","secreted APP (APPs); PMA 5 μM, dexnorfenfluramine 100 μM",~2.2 fold
same,PI hydrolysis relative to untreated astrocytes,"PI hydrolysis; dexnorfenfluramine 100 μM, p<0.05",~2.6 fold
same,effect on APP mRNA,APP mRNA; PMA 5 μM or dexnorfenfluramine 100 μM,does not increase
same,effect on cell-associated APP (APP holoprotein),APP holoprotein,no effect
same,effect on cell-associated APP (APP holoprotein),APP holoprotein; listed as dexnorfenfluramine,does not increase
O=C(O)CN(CCOCCOCCN(CC(=O)O)CC(=O)O)CC(=O)O [EGTA],effect on the increase in APP mRNA stimulated by PG E2,APP mRNA; 24 h,significantly inhibited
same,effect on basal cAMP levels,cellular cAMP levels; EGTA or KN-93 100 μM alone,no significant effect
same,effect on cellular cAMP levels stimulated by PG E2,cellular cAMP levels,Neither EGTA nor KN-93 had a significant effect
same,effect on basal APP holoprotein,APP holoprotein; EGTA or KN-93 100 μM alone,no significant effect
same,effect on the increase in APP holoprotein stimulated by PG E2,APP holoprotein; EGTA or KN-93 100 μM,significantly inhibited
C=CC[C@@H]1/C=C(\C)C[C@H](C)C[C@H](OC)[C@H]2O[C@@](O)(C(=O)C(=O)N3CCCC[C@H]3C(=O)O[C@H](/C(C)=C/[C@@H]3CC[C@@H](O)[C@H](OC)C3)[C@H](C)[C@@H](O)CC1=O)[C@H](C)C[C@@H]2OC [FK-506],effect on basal cAMP levels,cellular cAMP levels; cyclosporin A or FK-506 (50 μM) alone,no significant effect
same,effect on basal APP holoprotein,APP holoprotein; cyclosporin A or FK-506 50 μM alone,no significant effect
NCCNS(=O)(=O)c1cccc2cnccc12 [H9],effect on APP synthesis,APP synthesis,decrease or inhibit
"Cl.Cl.O=S(=O)(NCCNC/C=C/c1ccc(Br)cc1)c1cccc2cnccc12 [H-89, H-89 dihydrochloride]",effect on PG E2-stimulated APP mRNA production,APP mRNA; H-89 dihydrochloride,blocked
same,effect on the increase in APP holoprotein stimulated by PG E2,APP holoprotein; H-89 100 μM,completely abolished
"COc1ccc(S(=O)(=O)N(CCO)c2ccccc2CN(C)CC=Cc2ccc(Cl)cc2)cc1.O=P(O)(O)O [KN-93, N-[2-[[[3-(4′-chlorophenyl)-2-propenyl]methylamino]methyl]phenyl]-N-(2-hydroxyethyl)-4′-methoxy-benzenesulfonamide phosphate]",effect on the increase in APP mRNA stimulated by PG E2,APP mRNA; 24 h,significantly inhibited
same,effect on basal cAMP levels,cellular cAMP levels; EGTA or KN-93 100 μM alone,no significant effect
same,effect on cellular cAMP levels stimulated by PG E2,cellular cAMP levels,Neither EGTA nor KN-93 had a significant effect
same,effect on basal APP holoprotein,APP holoprotein; EGTA or KN-93 100 μM alone,no significant effect
same,effect on the increase in APP holoprotein stimulated by PG E2,APP holoprotein; EGTA or KN-93 100 μM,significantly inhibited
"NC[C@H](O)c1ccc(O)c(O)c1 [NE, norepinephrine]",PI hydrolysis,"PI hydrolysis; NE 50 μM, 1 h",significantly increased
same,APP mRNA levels versus untreated cells,"APP mRNA; 24 h, NE 50 or 100 μM, isoproterenol 50 μM, Northern blot",about 1.7 fold
same,APP mRNA level versus NE concentration,APP mRNA; NE 50-400 μM,do not increase linearly
same,"APP mRNA, of untreated cells","APP mRNA; NE 50 or 100 μM, isoproterenol 50 μM",180%
same,cAMP formation,"cellular cAMP levels; NE 50 μM, 1 h",significantly increased
same,process formation in astrocytes,astrocytes,increase
same,"APP holoprotein in cell lysates, of that seen in untreated cells","APP holoprotein; 8Br-cAMP or NE, antibodies 22C11 and R37",200%
same,amount of cell-associated APP holoprotein relative to untreated cells,"APP holoprotein; NE 50 μM, about 24 h, Western blot",~1.7 fold
same,cell-associated APP relative to untreated control cells,"APP holoprotein; NE 50 μM, mAb22C11, p<0.05",significantly more
same,APP holoprotein level versus NE concentration,APP holoprotein; NE 50-400 μM,do not increase linearly
same,glial fibrillary acidic protein immunoreactivity,[1],increase
